Literature values in patent publication EP2687509A2, “Dicarboxyimides derivatives for use in the treatment of cancer” (Warszawski Uniwersytet Medyczny, priority 2012, dated 2014).

Experiments:
[1] = mouse, in vivo; cited from earlier work
[2] = higher than for the lead compound amonafide; cited from earlier work
[3] = tested on: murine leukemia, breast cancer and orthotopic models of non-small cell lung cancer and pancreatic cancer; conditions: cited from earlier work

SMILES: CN(C)CCN1C(=O)c2cccc3cc(NC(=O)NC(=O)C(Cl)(Cl)Cl)cc(c23)C1=O [UNBS3157, 2,2,2-trichloro-N-({2-[2-(dimethylamino)ethyl]-1,3-dioxo-2,3-dihydro-1H-benzo[de]izoquinolino-5-ylo}carbamoylo)acetamide]
- haemotoxicity [1]: no haemotoxicity
- maximum tolerated dose relative to amonafide [2]: about 4 x
- activity in in vivo models compared to amonafide [3]: enhanced activity
